The results in this text go back to patent US20250034144A1, “NEW CRYSTAL FORM OF ERTAPENEM SODIUM AND PREPARATION METHOD THEREFOR” (ASYMCHEM LABORATORIES (TIANJIN) CO., LTD., priority 2021, published 2025).

The nature of series [1]: Stability of the product at −18° C. (purity and content over 12 months). It is filed as physicochemical. The procedure: Data of the stability of the product at −18° C. are shown in Table 2 below: […]
Series [2] in a line: Fluidity related test (densities, Carr index, Hausner ratio, angle of repose). It is filed as physicochemical. The procedure:
(Two) A fluidity related test was carried out on the crystal form A product of ertapenem sodium, the crystal form B product, the crystal form C product, the crystal form D product, the crystal form E product and the amorphous product of ertapenem sodium. [formula] [formula] [table]

Each structure is given as a SMILES string.

For the molecule `C[C@@H](O)[C@H]1C(=O)N2C(C(=O)[O-])=C(S[C@@H]3CN[C@H](C(=O)Nc4cccc(C(=O)O)c4)C3)[C@H](C)[C@H]12.[Na+]` [Example 2, ertapenem sodium], the Content was 99.1% in series [1] (0 month); 99.1% in series [1] (1 month); 99.1% in series [1] (2 months); 99.1% in series [1] (3 months); 99.1% in series [1] (4 months); 99.0% in series [1] (5 months). Also, the Content in series [1] (6 months), in series [1] (7 months), in series [1] (8 months), in series [1] (9 months), in series [1] (10 months) and in series [1] (11 months) was 99.0% in each case. The molecule also displayed a Content in series [1] (12 months) of 99.0%. Also, the Purity stood at 99.2% in series [1] (0 month); 99.2% in series [1] (1 month); 99.2% in series [1] (2 months); 99.2% in series [1] (3 months); 99.2% in series [1] (4 months); 99.1% in series [1] (5 months). The Purity in series [1] (6 months) turned out to be 99.1%; in series [1] (7 months), 99.1%; in series [1] (8 months), 99.1%; in series [1] (9 months), 99.1%; in series [1] (10 months) it was 99.0%; in series [1] (11 months), 99.0%. Also, the Purity in series [1] (12 months) amounted to 99.0%. Besides, the “Stability of the crystal form product (in words)” value in series [1] (12 months) is “very stable”.
In the case of `C[C@@H](O)[C@H]1C(=O)N2C(C(=O)[O-])=C(S[C@@H]3CN[C@H](C(=O)Nc4cccc(C(=O)O)c4)C3)[C@H](C)[C@H]12.[Na+]` [Crystal form B, ertapenem sodium], in series [2], the Angle of repose was found to be 41°, the Bulk density stood at 0.63 g/mL, the Carr index is recorded as 20% and the Hausner ratio amounted to 1.25. Further, the Tap density in series [2] was 0.79 g/mL.
For `C[C@@H](O)[C@H]1C(=O)N2C(C(=O)[O-])=C(S[C@@H]3CN[C@H](C(=O)Nc4cccc(C(=O)O)c4)C3)[C@H](C)[C@H]12.[Na+]` [Crystal form D, ertapenem sodium], in that order: 47°, 0.64 g/mL, 21%, 1.27 and 0.81 g/mL.
With `C[C@@H](O)[C@H]1C(=O)N2C(C(=O)[O-])=C(S[C@@H]3CN[C@H](C(=O)Nc4cccc(C(=O)O)c4)C3)[C@H](C)[C@H]12.[Na+]` [Example 1, ertapenem sodium], the Content in series [1] (0 month) is 99.2%; in series [1] (1 month), 99.2%; in series [1] (2 months) it was 99.2%; in series [1] (3 months), 99.2%; in series [1] (4 months), 99.2%; in series [1] (5 months), 99.1%. In addition, the Content is recorded as 99.1% in series [1] (6 months); 99.1% in series [1] (7 months); 99.1% in series [1] (8 months); 99.1% in series [1] (9 months); 99.1% in series [1] (10 months); 99.0% in series [1] (11 months). This molecule also returned a Content in series [1] (12 months) of 99.0%. Further, the Purity amounted to 99.4% in series [1] (0 month); 99.4% in series [1] (1 month); 99.4% in series [1] (2 months); 99.4% in series [1] (3 months); 99.3% in series [1] (4 months); 99.3% in series [1] (5 months). Besides, the Purity came out at 99.3% in series [1] (6 months); 99.3% in series [1] (7 months); 99.3% in series [1] (8 months); 99.3% in series [1] (9 months); 99.3% in series [1] (10 months); 99.2% in series [1] (11 months). In series [1] (12 months), this molecule had a Purity of 99.2%. Moreover, the “Stability of the crystal form product (in words)” value in series [1] (12 months) was “very stable”.
Regarding `C[C@@H](O)[C@H]1C(=O)N2C(C(=O)[O-])=C(S[C@@H]3CN[C@H](C(=O)Nc4cccc(C(=O)O)c4)C3)[C@H](C)[C@H]12.[Na+]` [Crystal form F, ertapenem sodium], in series [2], the Angle of repose is 23°, the Bulk density amounted to 0.64 g/mL, the Carr index worked out at 10% and the Hausner ratio was 1.11. Further, the Tap density in series [2] was 0.71 g/mL. Besides, the “Fluidity (in words)” value in series [2] (compared with crystal forms A-E and the amorphous product) was “better fluidity”.
Regarding `C[C@@H](O)[C@H]1C(=O)N2C(C(=O)[O-])=C(S[C@@H]3CN[C@H](C(=O)Nc4cccc(C(=O)O)c4)C3)[C@H](C)[C@H]12.[Na+]` [Amorphous, ertapenem sodium], in series [2], the Angle of repose is 47°, the Bulk density is 0.63 g/mL, the Carr index was determined as 20% and the Hausner ratio is recorded as 1.25. Further, in series [2], the Tap density was found to be 0.79 g/mL.
Taken in the same sequence, the figures for `C[C@@H](O)[C@H]1C(=O)N2C(C(=O)[O-])=C(S[C@@H]3CN[C@H](C(=O)Nc4cccc(C(=O)O)c4)C3)[C@H](C)[C@H]12.[Na+]` [Crystal form A, ertapenem sodium] were 43°, 0.64 g/mL, 22%, 1.28 and 0.82 g/mL.
For `C[C@@H](O)[C@H]1C(=O)N2C(C(=O)[O-])=C(S[C@@H]3CN[C@H](C(=O)Nc4cccc(C(=O)O)c4)C3)[C@H](C)[C@H]12.[Na+]` [Crystal form C, ertapenem sodium], in that order: 43°, 0.63 g/mL, 19%, 1.24 and 0.78 g/mL.
For the molecule `C[C@@H](O)[C@H]1C(=O)N2C(C(=O)[O-])=C(S[C@@H]3CN[C@H](C(=O)Nc4cccc(C(=O)O)c4)C3)[C@H](C)[C@H]12.[Na+]` [Crystal form E, ertapenem sodium], in series [2], the Angle of repose turned out to be 46°, the Bulk density came to 0.66 g/mL, the Carr index came to 20% and the Hausner ratio is reported as 1.26. Also, in series [2], the Tap density amounted to 0.83 g/mL.
